Measurements from patent US9247759B2, “Identification of human T2R receptors that respond to bitter compounds that elicit the bitter taste in compositions, and the use thereof in assays to identify compounds that inhibit (block) bitter taste in compositions and use thereof” (SENOMYX, INC., priority 2007, dated 2016).

Assays:
[1] = biological target: hT2R10 (Homo sapiens (Human), UniProt Q9NYW0); assay: hT2R panel inhibition, transient HEK293 G16g44, agonist Strychnine 50 μM; assay type: cell-based; settings: HEK293, read-out: screening result against bitter receptor 10, compound at 25 μM; receptor activated to EC80 with the corresponding agonist
Chain of hT2R10 (Q9NYW0 whole entry): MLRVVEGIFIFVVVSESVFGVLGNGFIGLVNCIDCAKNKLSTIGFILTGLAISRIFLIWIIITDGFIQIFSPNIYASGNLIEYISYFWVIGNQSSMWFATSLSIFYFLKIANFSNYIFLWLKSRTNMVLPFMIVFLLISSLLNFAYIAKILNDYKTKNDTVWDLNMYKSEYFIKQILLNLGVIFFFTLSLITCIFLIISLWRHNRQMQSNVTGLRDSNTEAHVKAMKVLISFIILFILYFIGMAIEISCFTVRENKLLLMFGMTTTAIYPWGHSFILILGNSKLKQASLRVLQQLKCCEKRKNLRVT

[2] = biological target: T1, hT2R14 (Homo sapiens (Human), UniProt Q9NYV8); assay: hT2R panel inhibition, transient HEK293 G16g44, agonist Aristolochic Acid 2 μM; assay type: cell-based; settings: HEK293, compound at 25 μM; receptor activated to EC80 with the corresponding agonist; read-out: screening result against bitter receptor 14
T1 sequence (Q9NYV8 whole entry): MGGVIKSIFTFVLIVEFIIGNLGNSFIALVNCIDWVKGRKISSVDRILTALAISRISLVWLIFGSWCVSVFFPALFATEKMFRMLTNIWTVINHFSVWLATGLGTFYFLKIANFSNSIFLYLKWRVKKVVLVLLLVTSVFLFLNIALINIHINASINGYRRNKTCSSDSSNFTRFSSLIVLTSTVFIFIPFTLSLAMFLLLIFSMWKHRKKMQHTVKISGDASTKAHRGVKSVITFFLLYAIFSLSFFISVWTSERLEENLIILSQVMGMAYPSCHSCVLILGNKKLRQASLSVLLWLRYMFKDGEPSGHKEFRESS
Method in brief: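 Each hT2R was transiently transfected into HEK293 cells stably expressing G16g44 and assayed functionally for inhibition of agonist response. Agonists were applied at EC80: andrographolide at 0.5 mM for hT2R8 and aristolochic acid at 2 μM for hT2R14.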

[3] = tested on: hT2R55; assay: hT2R panel inhibition, transient HEK293 G16g44, agonist Cinchonine 150 μM; assay type: cell-based, human; settings: compound at 25 μM; receptor activated to EC80 with the corresponding agonist
Method in brief: (§1)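 Agonist concentrations were set at EC80 for each receptor. Activity was compared with and without the test compound, and the reduction recorded as inhibition, across 22 individually transfected human T2Rs.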

[4] = biological target: hT2R5 (Homo sapiens (Human), UniProt Q9NYW4); assay: hT2R panel inhibition, transient HEK293 G16g44, agonist Picoline 10 mM; assay type: cell-based; settings: HEK293, compound at 25 μM; receptor activated to EC80 with the corresponding agonist; read-out: screening result against bitter receptor 5
Chain of hT2R5 (Q9NYW4 whole entry): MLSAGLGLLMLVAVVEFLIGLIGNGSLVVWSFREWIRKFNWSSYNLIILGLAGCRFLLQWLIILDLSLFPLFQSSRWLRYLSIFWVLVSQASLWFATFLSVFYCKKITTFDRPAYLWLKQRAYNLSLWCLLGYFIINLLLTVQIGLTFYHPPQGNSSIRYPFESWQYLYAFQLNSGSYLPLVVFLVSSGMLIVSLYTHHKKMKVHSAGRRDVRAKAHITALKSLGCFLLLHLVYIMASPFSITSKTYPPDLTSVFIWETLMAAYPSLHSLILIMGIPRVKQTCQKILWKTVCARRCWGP
Method in brief: as §1

[5] = tested on: hT2R44; assay: hT2R panel inhibition, transient HEK293 G16g44, agonist Denatonium 0.5 μM; assay type: cell-based, human; settings: compound at 25 μM; receptor activated to EC80 with the corresponding agonist
Method in brief: as §1

[6] = biological target: hT2R4 (Homo sapiens (Human), UniProt Q9NYW5); assay: hT2R panel inhibition, transient HEK293 G16g44, agonist Chloroquine pH6.5 5 mM; assay type: cell-based; settings: HEK293, compound at 25 μM; receptor activated to EC80 with the corresponding agonist; class symbols; read-out: screening result against bitter receptor 4
Chain of hT2R4 (Q9NYW5 whole entry): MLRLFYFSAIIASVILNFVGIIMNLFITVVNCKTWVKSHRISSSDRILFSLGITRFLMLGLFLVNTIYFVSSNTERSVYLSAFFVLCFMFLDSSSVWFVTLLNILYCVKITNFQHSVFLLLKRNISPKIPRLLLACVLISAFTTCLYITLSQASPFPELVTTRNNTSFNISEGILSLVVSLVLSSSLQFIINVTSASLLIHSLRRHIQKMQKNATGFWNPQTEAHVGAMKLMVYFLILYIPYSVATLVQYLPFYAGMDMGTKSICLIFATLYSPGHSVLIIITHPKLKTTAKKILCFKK
Method in brief: as §1

[7] = biological target: hT2R75 (Homo sapiens (Human), UniProt P59540); assay: hT2R panel inhibition, transient HEK293 G16g44, agonist Strychnine 1 μM; assay type: cell-based; settings: HEK293, read-out: screening result against bitter receptor 75, compound at 25 μM; receptor activated to EC80 with the corresponding agonist
Chain of hT2R75 (P59540 whole entry): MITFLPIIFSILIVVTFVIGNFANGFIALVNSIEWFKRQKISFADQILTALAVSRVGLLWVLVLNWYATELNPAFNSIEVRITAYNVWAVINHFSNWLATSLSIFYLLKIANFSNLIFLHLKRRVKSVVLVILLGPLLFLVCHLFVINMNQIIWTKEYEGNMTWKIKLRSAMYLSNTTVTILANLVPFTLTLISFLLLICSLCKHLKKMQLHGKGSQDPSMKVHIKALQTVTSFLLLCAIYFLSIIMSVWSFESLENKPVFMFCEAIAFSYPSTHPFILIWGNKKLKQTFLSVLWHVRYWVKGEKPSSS

[8] = tested on: hT2R65; assay: hT2R panel inhibition, transient HEK293 G16g44, agonist Oleuropein 1 mM; assay type: cell-based, human; settings: compound at 25 μM; receptor activated to EC80 with the corresponding agonist
Method in brief: as §1

[9] = biological target: hT2R7 (Homo sapiens (Human), UniProt Q9NYW3); assay: hT2R panel inhibition, transient HEK293 G16g44, agonist Chloroquine pH6.5 10 mM; assay type: cell-based; settings: HEK293, compound at 25 μM; receptor activated to EC80 with the corresponding agonist; read-out: screening result against bitter receptor 7
Chain of hT2R7 (Q9NYW3 whole entry): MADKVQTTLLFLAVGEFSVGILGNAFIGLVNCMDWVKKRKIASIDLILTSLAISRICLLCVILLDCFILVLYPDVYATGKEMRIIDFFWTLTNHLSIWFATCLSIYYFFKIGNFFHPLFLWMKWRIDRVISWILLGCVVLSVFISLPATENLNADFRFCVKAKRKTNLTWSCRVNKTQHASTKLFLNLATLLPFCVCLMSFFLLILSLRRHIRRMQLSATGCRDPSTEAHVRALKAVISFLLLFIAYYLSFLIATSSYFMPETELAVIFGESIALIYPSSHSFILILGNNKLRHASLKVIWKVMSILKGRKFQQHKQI
Method in brief: as §1

[10] = biological target: hT2R16 (Homo sapiens (Human), UniProt Q9NYV7); assay: hT2R panel inhibition, transient HEK293 G16g44, agonist Salicin 1 mM; assay type: cell-based; settings: HEK293, compound at 25 μM; receptor activated to EC80 with the corresponding agonist; read-out: screening result against bitter receptor 16
Chain of hT2R16 (Q9NYV7 whole entry): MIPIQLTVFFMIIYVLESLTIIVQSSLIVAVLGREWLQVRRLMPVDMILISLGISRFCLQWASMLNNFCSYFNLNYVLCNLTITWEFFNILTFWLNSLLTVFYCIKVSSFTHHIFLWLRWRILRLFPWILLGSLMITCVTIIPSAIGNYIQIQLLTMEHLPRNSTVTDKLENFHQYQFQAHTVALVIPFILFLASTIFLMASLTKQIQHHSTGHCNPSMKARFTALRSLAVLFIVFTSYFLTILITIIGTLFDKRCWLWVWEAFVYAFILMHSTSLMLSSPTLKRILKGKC
Method in brief: as §1

[11] = biological target: hT2R64 (Homo sapiens (Human), UniProt P59538); assay: hT2R panel inhibition, transient HEK293 G16g44, agonist Aristolochic Acid 1 μM; assay type: cell-based; settings: HEK293, compound at 25 μM; receptor activated to EC80 with the corresponding agonist; read-out: screening result against bitter receptor 64
Chain of hT2R64 (P59538 whole entry): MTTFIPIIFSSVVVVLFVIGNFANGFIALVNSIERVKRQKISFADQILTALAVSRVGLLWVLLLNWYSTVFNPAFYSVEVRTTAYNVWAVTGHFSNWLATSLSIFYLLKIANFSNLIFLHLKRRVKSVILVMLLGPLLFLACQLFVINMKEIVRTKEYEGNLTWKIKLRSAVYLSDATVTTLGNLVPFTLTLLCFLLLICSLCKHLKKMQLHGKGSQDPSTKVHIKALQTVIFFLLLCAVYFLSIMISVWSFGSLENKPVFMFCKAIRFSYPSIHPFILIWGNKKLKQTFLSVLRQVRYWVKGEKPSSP
Method in brief: as §1

[12] = biological target: hT2R9 (Homo sapiens (Human), UniProt Q9NYW1); assay: hT2R panel inhibition, transient HEK293 G16g44, agonist Ofloxacin 1 mM; assay type: cell-based; settings: HEK293, compound at 25 μM; receptor activated to EC80 with the corresponding agonist; read-out: screening result against bitter receptor 9
Chain of hT2R9 (Q9NYW1 whole entry): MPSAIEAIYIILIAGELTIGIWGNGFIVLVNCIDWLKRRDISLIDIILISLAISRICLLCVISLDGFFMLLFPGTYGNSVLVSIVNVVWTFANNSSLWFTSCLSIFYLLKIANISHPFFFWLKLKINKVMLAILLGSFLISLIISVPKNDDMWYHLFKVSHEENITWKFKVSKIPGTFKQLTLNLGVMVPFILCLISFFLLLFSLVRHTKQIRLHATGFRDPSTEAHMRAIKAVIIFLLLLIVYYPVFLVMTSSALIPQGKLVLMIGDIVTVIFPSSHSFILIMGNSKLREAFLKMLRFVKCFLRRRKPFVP
Experimental: Specifically, in order to evaluate the inhibitory selectivity of the Compound C compound, this compound was tested against 22 human T2Rs which were deorphaned by Senomyx. These receptors and the bitter ligands that activate these human T2Rs are reported in earlier patent applications which are incorporated by reference herein. These 22 human T2Rs are hT2R1, 3, 4, 5, 7, 8, 9, 10, 13, 14, 16, 44, 51, 54, 55, 61, 63, 64, 65, 67, 71 and 75. The amino acid and nucleic acid sequences of all of these T2Rs may be found in these earlier patent applications. These human T2Rs were each individually transiently transfected into HEK293 cells that stably express the promiscuous G protein G16g44 and functional assays were effected using these receptors as disclosed in these same patent applications. […] The ligands were used at EC80 concentration levels. The list of bitter ligands utilized and the tested ligand concentrations are contained in Table 5 of this example.
Relating to the foregoing, FIG. 5 contains experimental results wherein Compound C was tested with different agonist compounds. The inhibition activity is represented by the reduction of receptor activity in the presence of Compound C. […] These 13 hT2Rs are hT2R3, 7, 10, 14, 16, 44, 51, 55, 61, 63, 64, 65, and 71.

[13] = biological target: hT2R61 (Homo sapiens (Human), UniProt P59537); assay: hT2R panel inhibition, transient HEK293 G16g44, agonist Aristolochic Acid 25 nM; assay type: cell-based; settings: HEK293, compound at 25 μM; receptor activated to EC80 with the corresponding agonist; read-out: screening result against bitter receptor 61
Chain of hT2R61 (P59537 whole entry): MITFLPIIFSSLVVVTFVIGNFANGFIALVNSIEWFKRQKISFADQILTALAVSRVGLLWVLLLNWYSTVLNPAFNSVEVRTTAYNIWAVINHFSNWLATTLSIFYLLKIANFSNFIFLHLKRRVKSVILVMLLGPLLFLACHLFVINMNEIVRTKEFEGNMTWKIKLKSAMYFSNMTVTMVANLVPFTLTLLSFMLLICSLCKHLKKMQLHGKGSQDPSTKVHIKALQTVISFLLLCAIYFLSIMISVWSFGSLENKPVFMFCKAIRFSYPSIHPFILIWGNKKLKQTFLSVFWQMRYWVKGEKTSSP
Method in brief: as §1

[14] = biological target: hT2R3 (Homo sapiens (Human), UniProt Q9NYW6); assay: hT2R panel inhibition, transient HEK293 G16g44, agonist Chloroquine pH6.5 50 μM; assay type: cell-based; settings: HEK293, compound at 25 μM; receptor activated to EC80 with the corresponding agonist; read-out: screening result against bitter receptor 3
Chain of hT2R3 (Q9NYW6 whole entry): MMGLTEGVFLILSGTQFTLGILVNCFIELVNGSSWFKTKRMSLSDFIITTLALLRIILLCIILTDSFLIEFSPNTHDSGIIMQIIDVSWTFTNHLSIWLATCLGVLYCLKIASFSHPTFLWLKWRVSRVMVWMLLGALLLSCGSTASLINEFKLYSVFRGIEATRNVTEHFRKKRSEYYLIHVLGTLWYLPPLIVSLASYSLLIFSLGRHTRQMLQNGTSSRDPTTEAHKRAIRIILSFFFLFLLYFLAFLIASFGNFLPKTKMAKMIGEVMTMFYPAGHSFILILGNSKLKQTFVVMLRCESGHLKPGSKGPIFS
Method in brief: as §1

[15] = biological target: hT2R71 (Homo sapiens (Human), UniProt P59536); assay: hT2R panel inhibition, transient HEK293 G16g44, agonist Picric Acid 10 μM; assay type: cell-based; settings: HEK293, compound at 25 μM; receptor activated to EC80 with the corresponding agonist; read-out: screening result against bitter receptor 71
Chain of hT2R71 (P59536 whole entry): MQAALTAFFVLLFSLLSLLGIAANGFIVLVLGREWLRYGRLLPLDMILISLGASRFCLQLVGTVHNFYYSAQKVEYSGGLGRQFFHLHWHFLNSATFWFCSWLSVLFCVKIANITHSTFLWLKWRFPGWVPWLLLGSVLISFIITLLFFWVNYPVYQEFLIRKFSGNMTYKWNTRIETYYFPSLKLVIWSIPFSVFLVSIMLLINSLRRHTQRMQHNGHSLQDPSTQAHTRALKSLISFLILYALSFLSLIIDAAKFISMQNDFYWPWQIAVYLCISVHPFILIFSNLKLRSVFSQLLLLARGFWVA
Method in brief: as §1

[16] = tested on: hT2R67; assay: hT2R panel inhibition, transient HEK293 G16g44, agonist Andrographolide 5 μM; assay type: cell-based, human; settings: compound at 25 μM; receptor activated to EC80 with the corresponding agonist
Method in brief: as §1

[17] = biological target: hT2R51 (Homo sapiens (Human), UniProt P59533); assay: hT2R panel inhibition, transient HEK293 G16g44, agonist Prop 2.5 μM; assay type: cell-based; settings: HEK293, compound at 25 μM; receptor activated to EC80 with the corresponding agonist; read-out: screening result against bitter receptor 51
Chain of hT2R51 (P59533 whole entry): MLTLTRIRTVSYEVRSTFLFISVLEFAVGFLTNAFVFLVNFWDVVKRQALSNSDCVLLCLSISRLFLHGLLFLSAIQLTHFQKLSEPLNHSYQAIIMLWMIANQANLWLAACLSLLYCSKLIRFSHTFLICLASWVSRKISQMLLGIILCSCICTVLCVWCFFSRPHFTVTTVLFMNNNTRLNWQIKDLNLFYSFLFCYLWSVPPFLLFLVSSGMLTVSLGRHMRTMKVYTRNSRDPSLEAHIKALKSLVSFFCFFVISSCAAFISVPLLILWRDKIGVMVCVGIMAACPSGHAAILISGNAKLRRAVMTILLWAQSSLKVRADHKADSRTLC
Method in brief: as §1

[18] = tested on: hT2R54; assay: hT2R panel inhibition, transient HEK293 G16g44, agonist Ranitidine 5 mM; assay type: cell-based, human; settings: compound at 25 μM; receptor activated to EC80 with the corresponding agonist
Method in brief: as §1

[19] = biological target: T1, hT2R14; assay: hT2R14 antagonist high-throughput FLIPR assay, stable cell line with G16g44, agonist aristolochic acid; assay type: cell-based; settings: read-out: IC50 on hT2R14 bitter receptor
Method in brief: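 HEK293 cells stably expressing hT2R14 with chimeric G16g44 were stimulated with aristolochic acid (3 μM), giving 70-80% of maximal receptor activity. Test compounds were added together with the agonist, and antagonism was read as fluorescent calcium signal on FLIPR.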

[20] = tested on: hT2R63; assay: hT2R panel inhibition, transient HEK293 G16g44, agonist Caffeine 1 mM or Andrographolide 100 μM; assay type: cell-based, human; settings: compound at 25 μM; receptor activated to EC80 with the corresponding agonist
Method in brief: as §1

Row | Structure (SMILES) | inhibition at 25 µM [1] [%] | inhibition at 25 µM [2] [%] | screening result against bitter receptor 55 [3] | inhibition at 25 µM [4] [%] | screening result against bitter receptor 44 [5] | inhibition at 25 µM [6] [%] | inhibition at 25 µM [7] [%] | screening result against bitter receptor 65 [8] | inhibition at 25 µM [9] [%] | inhibition at 25 µM [10] [%] | inhibition at 25 µM [11] [%] | inhibition at 25 µM [12] [%] | inhibition at 25 µM [13] [%] | inhibition at 25 µM [14] [%] | inhibition at 25 µM [15] [%] | screening result against bitter receptor 67 [16] | inhibition at 25 µM [17] [%] | screening result against bitter receptor 54 [18] | IC50 [19] [µM] | screening result against bitter receptor 63 [20]
1 | COc1ccc(CN(Cc2ccccc2)S(=O)(=O)Cc2ccc(C(=O)O)cc2)cc1 [Example 5-16, 4-((N-benzyl-N-(4-methoxybenzyl)sulfamoyl)methyl)benzoic acid] | 20 to 40 | 20 to 40 | ++++ (80% or greater inhibition = ++++) | 20 to 40 | +++ (60% to 80% inhibition = +++) | 20 to 40 | 20 to 40 | + (20% to 40% inhibition = +) | 20 to 40 | 20 to 40 | > 80 | 20 to 40 | 60 to 80 | 40 to 60 | 40 to 60 | – | – | – | – | –
2 | COc1ccc(CN(Cc2ccccc2C#N)S(=O)(=O)c2ccc(C(=O)O)cc2)cc1 [Example 5-25, 4-(N-(2-cyanobenzyl)-N-(4-methoxybenzyl)sulfamoyl)benzoic acid] | 60 to 80 | > 80 | +++ (60% to 80% inhibition = +++) | 40 to 60 | +++ (60% to 80% inhibition = +++) | 20 to 40 | – | ++++ (80% or greater inhibition = ++++) | 40 to 60 | 40 to 60 | – | 20 to 40 | – | 60 to 80 | – | ++ (40% to 60% inhibition = ++) | 20 to 40 | +++ (60% to 80% inhibition = +++) | 4.61 | –
3 | Cc1ccccc1CN(Cc1ccccc1)S(=O)(=O)c1ccc(C(=O)O)cc1 [Example 5-80, 4-(N-benzyl-N-(2-methylbenzyl)sulfamoyl)benzoic acid] | 20 to 40 | > 80 | +++ (60% to 80% inhibition = +++) | 20 to 40 | + (20% to 40% inhibition = +) | – | 20 to 40 | ++ (40% to 60% inhibition = ++) | 20 to 40 | 20 to 40 | 60 to 80 | 20 to 40 | 60 to 80 | 40 to 60 | 60 to 80 | + (20% to 40% inhibition = +) | 40 to 60 | + (20% to 40% inhibition = +) | – | ++++ (80% or greater inhibition = ++++)
